According to patent US8241674B2, “Methods and compositions for heavy metal detoxification” (priority 2007, dated 2012):
Read-outs that look alike come from different tables or passages of the source.

Tests used:
NQO1 enzyme = experiment: NADPH quinone oxido reductase (NQO1) activity assay in RL-34 cell lysate after treatment; conditions: RL-34 cells, 2 days, ratio of treated over vehicle control
GST enzyme = experiment: GST activity assay in RL-34 cell lysate after treatment; type: cell-based, rat; conditions: RL-34 cells, 2 days, ratio over DMSO control
[1] = tested on: metallothionein (MT 1, 2)
[2] = tested on: heme oxygenase (HO-1) luciferase reporter; experiment: Heme oxygenase (HO-1) luciferase reporter in HepG2 cells; conditions: HepG2 cell line; for Fold Induction of heme oxygenase luciferase activity: 24 hours, ratio over vehicle control, concentration not given; for expression of heme oxygenase promoter activity (in words): thirty percent induction over DMSO control considered active
Nrf-2 = experiment: Western blot of Nrf-2 in the nuclear fraction of HepG2 cells; type: cell-based, human; conditions: 4 hours, FIGS. 3 and 4
Experimental: Western blot detection—The HepG2 cell line was cultured as above and test compounds were added for four hours, after which the cells were lysed and the nuclear fraction was isolated (Dignam, J. D., R. M. Lebovitz, and R. G. Roeder, Nucleic Acids Res, 11(5): 1475-89, 1983). Total protein concentration was determined using the Bicinchoninic Acid Kit (Sigma). Total cell lysates (60 μg total protein) were electrophoresed and detection of Nrf-2 was performed using primary antibody incubation overnight at 4° C. (Santa Cruz Biotechnology, Inc, Santa Cruz, Calif.). Secondary antibody linked to horseradish peroxidase was incubated for one h (GE Healthcare, Piscataway, N.J.), after which proteins were visualized using the enhanced chemiluminescence (ECL) system. Densitometry was performed using Kodak Molecular Imaging Software v.4.0 (Eastman Kodak Company, Rochester, N.Y.) measuring the net intensity of the band.

[3] = tested on: phase II enzymes (GSTA1 and NQO1)
[4] = HepG2 cells, 8 hours, 25 μg/ml, average of GSTA1 and NQO1

## O=c1c(-c2ccc(O)cc2)coc2cc(O)cc(O)c12 [Bonistein]
NQO1 enzyme; 20 ug/mL
  Induction of NQO1 activity: 1.2
GST enzyme; 20 ug/mL
  Fold Induction of GST activity: 1.0 fold

## O=C(/C=C/c1ccc(O)c(O)c1)O[C@@H]1C[C@](O)(C(=O)O)C[C@@H](O)[C@H]1O [chlorogenic acid]
NQO1 enzyme; 25 ug/mL
  Induction of NQO1 activity: 1.2
GST enzyme; 25 ug/mL
  Fold Induction of GST activity: 1.1 fold

## C[S+]([O-])CCCCN=C=S (stereo not drawn) [Sulforaphane, reference compound]
[1]
  MT 1,2 (ave) Ratio to DMSO: 0.67
  MT gene induction (in words): but not MT
[2]
  Fold Induction of heme oxygenase luciferase activity: 4.2 fold
  expression of heme oxygenase promoter activity (in words): induced
Nrf-2
  Nrf-2 nuclear translocation: dramatic increase
NQO1 enzyme; 3 ug/mL
  Induction of NQO1 activity: 3.7
Heme oxygenase (HMOX1)
  HMOX1 Ratio to DMSO: 8.82
  HMOX1 gene induction (in words): increased
GST enzyme; 3 ug/mL
  Fold Induction of GST activity: 1.8 fold
[3]
  Phase II (ave) Ratio to DMSO: 1.84
  phase II gene induction (in words): increased

## c1ccc2c(Cc3c[nH]c4ccccc34)c[nH]c2c1 [DIM]
NQO1 enzyme; 25 ug/mL
  Induction of NQO1 activity: 1.5

## [Cl][Cd][Cl] [CdCl2, reference compound]
[1]; HepG2 cells, 8 hours, 40 uM
  MT 1,2 (ave) Ratio to DMSO: 83.31
[1]; HepG2 cells, controls
  MT gene induction (in words): induce
Heme oxygenase (HMOX1); HepG2 cells, 8 hours, 40 uM
  HMOX1 Ratio to DMSO: 21.23
Heme oxygenase (HMOX1); HepG2 cells, controls
  HMOX1 gene induction (in words): induce
[3]; HepG2 cells, 8 hours, 40 uM, average of GSTA1 and NQO1
  Phase II (ave) Ratio to DMSO: 0.94
[3]; HepG2 cells, controls
  phase II gene induction (in words): unable to increase

## C/C=C1/[C@H](O[C@@H]2O[C@H](CO)[C@@H](O)[C@H](O)[C@H]2O)OC=C(C(=O)OC)[C@H]1CC(=O)OCCc1ccc(O)c(O)c1 [Oleuropein]
NQO1 enzyme; 20 ug/mL
  Induction of NQO1 activity: 1.0
GST enzyme; 20 ug/mL
  Fold Induction of GST activity: 1.0 fold

## O=C(CCc1ccc(O)cc1)c1c(O)cc(O)cc1O[C@@H]1O[C@H](CO)[C@@H](O)[C@H](O)[C@H]1O [Phloridzin]
NQO1 enzyme; 20 ug/mL
  Induction of NQO1 activity: 1.0
GST enzyme; 20 ug/mL
  Fold Induction of GST activity: 1.0 fold

## C=C1CC[C@@H]2[C@](C)(CO)[C@H](O)CC[C@@]2(C)[C@@H]1C/C=C1/C(=O)OC[C@H]1O [Andrographis, 3-(2-(Decahydro-6-hydroxy-5-(hydroxymethyl)-5,8a-dimethyl-2-methylenenaphthyl)ethylidene)dihydro-4-hydroxyfuran-2(3H)-one]
[1]; HepG2 cells, 8 hours, 25 μg/ml
  MT 1,2 (ave) Ratio to DMSO: 0.87
[2]
  Fold Induction of heme oxygenase luciferase activity: 4.4 fold
NQO1 enzyme; 25 ug/mL
  Induction of NQO1 activity: 4.5
Heme oxygenase (HMOX1); HepG2 cells, 8 hours, 25 μg/ml
  HMOX1 Ratio to DMSO: 2.43
GST enzyme; 25 ug/mL
  Fold Induction of GST activity: 1.4 fold
[3]; [4]
  Phase II (ave) Ratio to DMSO: 2.29

## CC(C)=CCC/C(C)=C/CC/C(C)=C/CC/C(C)=C/CC1=C(C)C(=O)c2ccccc2C1=O [Vitamin K2]
NQO1 enzyme; 20 ug/mL
  Induction of NQO1 activity: 0.9

## COc1cc(C=CC(=O)CC(=O)C=Cc2ccc(O)c(OC)c2)ccc1O [Curcumin, 1,7-Bis(4-hydroxy-3-methoxyphenyl)hepta-1,6-diene-3,5-dione]
[1]; HepG2 cells, 8 hours, 5 μg/ml
  MT 1,2 (ave) Ratio to DMSO: 0.90
[2]
  Fold Induction of heme oxygenase luciferase activity: 6.1 fold
  expression of heme oxygenase promoter activity (in words): induced
NQO1 enzyme; 5 ug/mL
  Induction of NQO1 activity: 4.6
Heme oxygenase (HMOX1); HepG2 cells, 8 hours, 5 μg/ml
  HMOX1 Ratio to DMSO: 2.09
GST enzyme; 5 ug/mL
  Fold Induction of GST activity: 1.0 fold
[3]; HepG2 cells, 8 hours, 5 μg/ml, average of GSTA1 and NQO1
  Phase II (ave) Ratio to DMSO: 1.15

## O=c1oc2c(O)c3oc(=O)c4c5c(oc(=O)c6cc(O)c(O)c(O)c65)c(O)c5oc(=O)c(c2c2c(O)c(O)c(O)cc12)c3c54 [Terminalin]
[2]
  Fold Induction of heme oxygenase luciferase activity: 1.7 fold
  expression of heme oxygenase promoter activity (in words): induced
NQO1 enzyme; 25 ug/mL
  Induction of NQO1 activity: 1.0
GST enzyme; 25 ug/mL
  Fold Induction of GST activity: 1.0 fold

## OCc1c[nH]c2ccccc12 [I3C]
NQO1 enzyme; 25 ug/mL
  Induction of NQO1 activity: 2.4
GST enzyme; 25 ug/mL
  Fold Induction of GST activity: 1.1 fold

## O=C([O-])CC(O)(CC(=O)[O-])C(=O)[O-].[K+].[K+].[K+] [K-Citrate]
NQO1 enzyme; 20 ug/mL
  Induction of NQO1 activity: 0.9
GST enzyme; 20 ug/mL
  Fold Induction of GST activity: 1.1 fold

## O=c1c(O)c(-c2ccc(O)c(O)c2)oc2cc(O)cc(O)c12 [Quercitin]
NQO1 enzyme; 20 ug/mL
  Induction of NQO1 activity: 1.4
GST enzyme; 20 ug/mL
  Fold Induction of GST activity: 1.0 fold

## N[C@H]1C(O)O[C@H](CO)[C@@H](O)[C@@H]1O (stereo partly drawn) [Glucosamine]
NQO1 enzyme; 20 ug/mL
  Induction of NQO1 activity: 1.0
GST enzyme; 20 ug/mL
  Fold Induction of GST activity: 1.1 fold

## COc1ccc2cc3[n+](cc2c1OC)CCc1cc2c(cc1-3)OCO2 [Berberine]
NQO1 enzyme; 20 ug/mL
  Induction of NQO1 activity: 1.4
GST enzyme; 20 ug/mL
  Fold Induction of GST activity: 1.0 fold

## Oc1ccc(C=Cc2cc(O)cc(O)c2)cc1 [Resveratrol]
NQO1 enzyme; 20 ug/mL
  Induction of NQO1 activity: 2.2

## Inulin
NQO1 enzyme; 20 ug/mL
  Induction of NQO1 activity: 0.9

## CC1(C)C=Cc2c(ccc3c2OC[C@@H](c2ccc(O)cc2O)C3)O1 [Glabridin]
NQO1 enzyme; 20 ug/mL
  Induction of NQO1 activity: 1.0
GST enzyme; 20 ug/mL
  Fold Induction of GST activity: 1.0 fold

## [Cl-].[Cl-].[Zn+2] [ZnCl2]
[1]; HepG2 cells, 8 hours, 10 μg/ml
  MT 1,2 (ave) Ratio to DMSO: 12.43
[2]
  Fold Induction of heme oxygenase luciferase activity: 1.5 fold
  expression of heme oxygenase promoter activity (in words): induced
Heme oxygenase (HMOX1); HepG2 cells, 8 hours, 10 μg/ml
  HMOX1 Ratio to DMSO: 0.97
[3]; HepG2 cells, 8 hours, 10 μg/ml, average of GSTA1 and NQO1
  Phase II (ave) Ratio to DMSO: 0.94

## CC1(C)CC[C@]2(C(=O)O)CC[C@]3(C)C(=CC[C@@H]4[C@@]5(C)CC[C@H](O)C(C)(C)[C@@H]5CC[C@]43C)[C@@H]2C1 [Oleanolic acid]
[1]; HepG2 cells, 8 hours, 25 μg/ml
  MT 1,2 (ave) Ratio to DMSO: 2.39
[2]
  Fold Induction of heme oxygenase luciferase activity: 2.7 fold
  expression of heme oxygenase promoter activity (in words): induced
NQO1 enzyme; 25 ug/mL
  Induction of NQO1 activity: 1.5
Heme oxygenase (HMOX1); HepG2 cells, 8 hours, 25 μg/ml
  HMOX1 Ratio to DMSO: 1.88
GST enzyme; 25 ug/mL
  Fold Induction of GST activity: 1.0 fold
[3]; [4]
  Phase II (ave) Ratio to DMSO: 0.91

## CC/C=C\C/C=C\C/C=C\C/C=C\C/C=C\C/C=C\CCC(=O)O [DHA]
NQO1 enzyme; 20 ug/mL
  Induction of NQO1 activity: 0.9
GST enzyme; 20 ug/mL
  Fold Induction of GST activity: 1.0 fold

## COc1cc(O)c(CC=C(C)C)c(O)c1C(=O)/C=C/c1ccc(O)cc1 [Xanthohumol]
[1]; HepG2 cells, 8 hours, 1 μg/ml
  MT 1,2 (ave) Ratio to DMSO: 0.90
[2]
  Fold Induction of heme oxygenase luciferase activity: 5.4 fold
  expression of heme oxygenase promoter activity (in words): induced
NQO1 enzyme; 1 ug/mL
  Induction of NQO1 activity: 3.7
Heme oxygenase (HMOX1); HepG2 cells, 8 hours, 1 μg/ml
  HMOX1 Ratio to DMSO: 1.11
GST enzyme; 1 ug/mL
  Fold Induction of GST activity: 1.4 fold
[3]; HepG2 cells, 8 hours, 1 μg/ml, average of GSTA1 and NQO1
  Phase II (ave) Ratio to DMSO: 1.02

## C[C@@H]1O[C@@H](OC[C@H]2O[C@@H](Oc3c(-c4ccc(O)c(O)c4)oc4cc(O)cc(O)c4c3=O)[C@H](O)[C@@H](O)[C@@H]2O)[C@H](O)[C@H](O)[C@H]1O [Rutin]
NQO1 enzyme; 20 ug/mL
  Induction of NQO1 activity: 0.9
GST enzyme; 20 ug/mL
  Fold Induction of GST activity: 1.0 fold

## CC(C)Oc1ccc2c(=O)c(-c3ccccc3)coc2c1 [Ipriflavone]
NQO1 enzyme; 20 ug/mL
  Induction of NQO1 activity: 0.8
GST enzyme; 20 ug/mL
  Fold Induction of GST activity: 1.1 fold

## O=C1O[C@H]([C@@H](O)CO)C(O)=C1O [Vitamin C]
NQO1 enzyme; 20 ug/mL
  Induction of NQO1 activity: 0.9
GST enzyme; 20 ug/mL
  Fold Induction of GST activity: 1.1 fold

## C[C@]12CC[C@H](O)CC1=CC[C@@H]1[C@@H]2CC[C@]2(C)C(=O)CC[C@@H]12 [DHEA]
NQO1 enzyme; 20 ug/mL
  Induction of NQO1 activity: 1.1

## Hyaluronic acid
NQO1 enzyme; 20 ug/mL
  Induction of NQO1 activity: 0.9
